Each structure is given as a SMILES string. Values joined by “and” are separate entries in the source; they are usually repeats but may differ in a detail not shown here. Equal values may be shown once.

Series [1] concerns MCF-7 human breast cancer cells. Nature of the series: MTT assay for antiproliferative effects in MCF-7. Conditions: Homo sapiens, MCF7, MCF-7, MTT assay. The format is cell-based. How it is done: (§1) The human breast carcinoma cell line, MCF-7, was purchased from the European Collection of Animal Cell Cultures (ECACC). The cells were maintained in MCF-7 complete medium; consisting of Eagle’s Minimum Essential Medium (MEM) supplemented with 10% (v/v) Foetal Bovine Serum (FBS), 2 mM L-glutamine, 100 μg/mL penicillin/streptomycin and 1% (v/v) non-essential amino acids. Cell cultures were maintained at 37 °C under a humidified atmosphere of 5% CO2/95% O2. The human breast carcinoma cell line, MDA, was purchased from the European Collection of Animal Cell Cultures (ECACC). The cells were maintained in MDA complete medium; consisting of Dulbecco’s Modified Eagle’s Medium (D-MEM) supplemented with 10% (v/v) Foetal Bovine Serum (FBS), 2 mM L-glutamine, 100 μg/mL penicillin/streptomycin. Cell cultures were maintained at 37 °C under a humidified atmosphere of 5% CO2/95% O2. The MTT assay was performed according to the reported protocol. The tetrazolium salt, 3-(4,5-dimethylthiazol-2-yl)-2,5-diphenyltetrazolium bromide (MTT) is taken up only by metabolically active cells and cleaved to form a formazan dye by mitochondrial dehydrogenases. Assays where repeated in three experiments performed in triplicate (unless otherwise stated) and reported results represent the mean value ± standard error mean. Graphs of percentage cell viability versus concentration of the subject compound were processed using PRISM [31].

For series [2] the test system is unchanged. Description: Lactate dehydrogenase (LDH) cytotoxicity assay in MCF-7. The format is cell-based. The settings on record: % cell lysis at 10 µM. On the procedure: (§2) In this assay, the release of cytoplasmic lactate dehydrogenase (LDH) is used as a measure of cell lysis. MCF-7 and MDA-MB-231 cells were seeded at a density of 1 × 10^4 cells/well in a 96-well plate and incubated for 24 h. The cells were then dosed with 2 μL volumes of the test compounds, over the concentration range 1 nM–50 μM. Cytotoxicity was determined using the CytoTox 96 nonradioactive cytotoxicity assay (Promega, Madison, WI, USA) following the manufacturer’s protocol.

For series [3], the system named is MDA-MB-231 human breast cancer cells. Description: MTT assay for antiproliferative effects in MDA-MB-231. The format is cell-based. The settings on record: MDA-MB-231, MTT assay. How it is done: as §1, with “Cell cultures were maintained at 37 °C under a humidified atmosphere of 5% CO2/95% O2.” left out, “Assays where repeated in three experiments performed in triplicate (unless otherwise stated) and reported results represent the mean value ± standard error mean.” left out

Series [4] has the same test system. Description: Lactate dehydrogenase (LDH) cytotoxicity assay in MDA-MB-231. The format is cell-based. The settings on record: % cell lysis at 10 μM. On the procedure: as §2
Series [5] in a line: HPLC stability study in phosphate buffer. It counts as physicochemical. The settings on record: pH values in the range 4–9. On the procedure:
Analytical high-performance liquid chromatography (HPLC) stability studies were performed using a Symmetry® column (C18, 5 µm, 4.6 × 150 mm), a Waters 2487 Dual Wavelength Absorbance detector, a Waters 1525 binary HPLC pump and a Waters 717 plus Autosampler (Waters Corporation, Milford, MA, USA). Samples were detected at wavelength of 254 nm. All samples were analysed using acetonitrile (80%):water (20%) as the mobile phase over 10 min and a flow rate of 1 mL/min. Stock solutions are prepared by dissolving 5mg of compound in 10 mL of mobile phase. Phosphate buffers at the desired pH values (4, 7.4, and 9) were prepared in accordance with the British Pharmacopoeia monograph 2015. 30 µL of stock solution was diluted with 1 mL of appropriate buffer, shaken and injected immediately. Samples were withdrawn and analysed at time intervals of t = 0 min, 5 min, 30 min, 60 min, 90 min, 120 min, 24 h and 48 h.

The next series deals with T1, human ERα (Homo sapiens, UniProt P03372).
T1 construct: purchased Invitrogen; host or cells: baculovirus expression system
T1 sequence (P03372 1-595): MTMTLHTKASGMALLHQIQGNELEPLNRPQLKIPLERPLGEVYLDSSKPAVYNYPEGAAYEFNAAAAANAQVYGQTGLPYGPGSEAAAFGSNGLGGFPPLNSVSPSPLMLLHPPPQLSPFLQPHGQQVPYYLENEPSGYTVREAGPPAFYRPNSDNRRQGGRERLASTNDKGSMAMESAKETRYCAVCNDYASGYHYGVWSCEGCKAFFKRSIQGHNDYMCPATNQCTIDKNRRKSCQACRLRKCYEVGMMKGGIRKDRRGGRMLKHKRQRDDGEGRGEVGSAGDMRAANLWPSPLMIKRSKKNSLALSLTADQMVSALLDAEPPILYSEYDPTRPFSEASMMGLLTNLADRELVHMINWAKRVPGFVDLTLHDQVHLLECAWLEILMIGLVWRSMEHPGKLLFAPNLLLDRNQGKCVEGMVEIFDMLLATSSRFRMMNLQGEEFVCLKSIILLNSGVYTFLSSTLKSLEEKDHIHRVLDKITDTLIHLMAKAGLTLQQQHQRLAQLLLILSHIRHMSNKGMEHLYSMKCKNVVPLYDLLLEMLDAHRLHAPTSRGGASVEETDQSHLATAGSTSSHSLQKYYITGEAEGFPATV
Description: Estrogen receptor fluorescence polarisation competitive binding assay, ERα. The settings on record: for IC50: competitive binding, fluoromone ligand; for Selectivity (α/β): ratio of ER binding IC50 values.

The target in another series is T2, human ERβ (Homo sapiens, UniProt Q92731).
T2 construct: purchased Invitrogen; host or cells: baculovirus expression system
T2 sequence (Q92731 whole entry): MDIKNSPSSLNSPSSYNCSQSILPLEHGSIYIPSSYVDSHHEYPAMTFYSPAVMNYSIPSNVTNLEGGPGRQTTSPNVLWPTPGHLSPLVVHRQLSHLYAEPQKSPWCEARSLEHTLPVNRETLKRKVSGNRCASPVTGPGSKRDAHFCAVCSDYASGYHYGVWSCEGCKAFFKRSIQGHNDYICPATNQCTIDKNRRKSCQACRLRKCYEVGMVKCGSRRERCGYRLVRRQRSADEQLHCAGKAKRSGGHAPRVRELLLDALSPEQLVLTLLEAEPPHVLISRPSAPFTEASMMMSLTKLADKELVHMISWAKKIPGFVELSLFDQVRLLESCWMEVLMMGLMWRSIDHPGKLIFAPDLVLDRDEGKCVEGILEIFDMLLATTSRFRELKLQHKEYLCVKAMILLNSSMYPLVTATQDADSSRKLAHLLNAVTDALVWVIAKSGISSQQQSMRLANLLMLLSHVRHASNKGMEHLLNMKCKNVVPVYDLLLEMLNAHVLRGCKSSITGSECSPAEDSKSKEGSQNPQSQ
Description: Estrogen receptor fluorescence polarisation competitive binding assay, ERβ. Conditions: fluoromone ligand.

Where [6] appears, read: mean of at least three experiments in triplicate.

Regarding `CCC(=C(c1ccc(O)cc1)c1ccc(OCCN(C)C(=O)/C(=C/c2ccc(OC)c(O)c2)c2cc(OC)c(OC)c(OC)c2)cc1)c1ccccc1` (mixture of isomers) [Compound 27, (E)-3-(3-Hydroxy-4-methoxyphenyl)-N-(2-{4-[(E/Z)-1-(4-hydroxyphenyl)-2-phenylbut-1-enyl]phenoxy}ethyl)-N-methyl-2-(3,4,5-trimethoxyphenyl) acrylamide], the IC50 in series [1] (setting [6]) was 33 nM; in series [1] (values in nM), 0.033 nM; in series [3], 2670 nM. For the same molecule, the “% Cell Death at 10 μM” value in series [2] is 10%; in series [4], 17%. The molecule also returned a half-life at 14.6 µg/mL in series [5] above 24 h.

In the case of `CCC(=C(c1ccc(O)cc1)c1ccc(OCCNC)cc1)c1ccccc1` [Compound 11, 4-{1-[4-(2-Methylaminoethoxy)phenyl]-2-phenylbut-1-enyl}phenol, reference compound], the IC50 in series [1] (setting [6]) turned out to be 29 nM; in series [1] (values in nM) it was 0.029 nM; at human ERα, 47 nM; on human ERβ, 118 nM. Further, the “% Cell Death at 10 μM” value in series [2] came out at 23%. Further, the “Selectivity (α/β)” value on human ERα worked out at 2.52.

With `CCC(=C(c1ccc(O)cc1)c1ccc(OCCNC)cc1)c1ccc(O)cc1` [Compound 12, 4-(1-(4-(2-(Methylamino)ethoxy)phenyl)-2-(4-hydroxyphenyl)but-1-enyl)phenol], the IC50 in series [1] (setting [6]) was 28 nM; at human ERα, 44.1 nM and 44 nM; at human ERβ, 39.7 nM and 40 nM. In addition, the “% Cell Death at 10 μM” value in series [2] was 11%. Besides, the “Selectivity (α/β)” value on human ERα is given as 0.90.

On to `CCC(=C(c1ccc(O)cc1)c1ccc(OCCN(C)C(=O)/C(=C/c2cc(OC)c(OC)c(OC)c2)c2ccc(OC)cc2)cc1)c1ccccc1` (mixture of isomers) [Compound 31, (E)-N-(2-{4-[(E/Z)-1-(4-Hydroxyphenyl)-2-phenylbut-1-enyl]phenoxy}ethyl)-2-(4-methoxyphenyl)-N-methyl-3-(3,4,5-trimethoxyphenyl) acrylamide], for which the figures for the IC50 in series [1] (setting [6]) and in series [3] were 2080 nM and 51000 nM, respectively. Besides, the “% Cell Death at 10 μM” value in series [2] is 1%; in series [4], 0%. For the same molecule, the half-life at 14.6 µg/mL in series [5] is above 24 h.

As for `CCC(=C(c1ccc(O)cc1)c1ccc(OCCN(C)C(=O)/C(=C/c2cc(OC)c(OC)c(OC)c2)c2ccc(OC)cc2)cc1)c1ccc(O)cc1` (mixture of isomers) [Compound 32, (E)-N-(2-{4-[(E/Z)-1,2-Bis-(4-hydroxyphenyl)but-1-enyl]phenoxy}ethyl)-2-(4-methoxyphenyl)-N-methyl-3-(3,4,5-trimethoxyphenyl)acrylamide], the IC50 in series [1] (setting [6]) stood at 41 nM; in series [3], 4090 nM. Also, the figures for the “% Cell Death at 10 μM” value in series [2] and in series [4] were 16% and 0%, respectively. Moreover, the half-life at 14.6 µg/mL in series [5] is above 24 h.

Source of the values: PMC5344255, “Design, Synthesis and Biochemical Evaluation of Novel Selective Estrogen Receptor Ligand Conjugates Incorporating an Endoxifen-Combretastatin Hybrid Scaffold” (Biomedicines, 2016).
